Measurements as given in patent publication US4666842A, “Novel aldehyde oxidase and process for producing same” (Kyowa Hakko Kogyo Co., Inc., priority 1982, dated 1987).
Entries after “also recorded” stand apart in the source; their conditions may differ. Like-named read-outs stand apart in the source and are kept apart here.

Key:
[1] = test system: aldehyde oxidase (the present enzyme); test: Substrate specificity of the present aldehyde oxidase; assay type: biochemical, Pseudomonas sp No. 6233; settings: for Relative activity (substrate specificity): purified enzyme of Example 1, formaldehyde = 100%
Experimental: (§1) The amount of enzyme for decomposing 1 μmol of acetaldehyde in the presence of oxygen at 37° C. in one minute is designated as one unit. Specific activity is expressed by unit per mg of protein. The amount of enzyme protein is measured according to the method of O. H. Lowry, N. J. Rosebrough, A. L. Farr and R. J. Randall, J. Biol. Chem., 193 265(1951) using a copper-Folin reagent.
(§2) The enzyme activity can be measured by allowing the hydrogen peroxide formed from acetaldehyde by the action of the enzyme to react with 4-aminoantipyrine and phenol in the presence of a peroxidase and by quantitatively determining the amount of quinoneimine formed. The reaction is illustrated by the following equations (1) and (2): [drawing 1]
(§3) The above reagents (1)-(6) are put into a test tube, thoroughly shaken, and left standing at 37° C. for 5 minutes. Then, the enzyme solution (7) is added to the test tube to make up a total volume of 3 ml, and the test tube is shaken at 37° C. for 10 minutes to complete the reaction. As a control, the procedure is repeated using water in place of the substrate. The absorbancies of the reaction solution and control at 500 nm are measured, and the difference between the absorbancies is obtained as ΔO.D.
(§4) One unit of aldehyde oxidase is the amount of enzyme for decomposing 1 μmole of acetaldehyde at 37° C. in one minute. The absorbancy coefficient of 1 mM quinoneimine is reported in Clin. Chem., 20, 470(1974) to be 5.33. Therefore, if the absorbancy (ΔO.D.) of 3 ml of the reaction solution at 500 nm as obtained in the procedure (C) is designation as a, titer (A) per ml of the enzyme solution can be given as follows: [formula]
(§5) II. Physical and chemical properties of the aldehyde oxidase of the present invention are described below (hereinafter, the aldehyde oxidase will be sometimes referred to merely as "the present enzyme"). A purified enzyme prepared in Example 1 is used as the aldehyde oxidase.
For example, formaldehyde, acetaldehyde and glyceraldehyde are oxidized to formic acid, acetic acid and glyceric acid respectively. The present enzyme acts upon a wide range of aldehydes, for example, saturated aliphatic aldehydes such as formaldehyde, acetaldehyde, propionaldehyde, n-valeraldehyde, n-hexylaldehyde, heptylaldehyde, etc.; unsaturated aliphatic aldehydes such as crotonaldehyde, citral, etc.; aromatic aldehydes such as benzaldehyde, etc.; D- or L-glyceraldehyde, etc.
In the following Table 1, the relative activity of the present enzyme upon various substrates is set forth.

[2] = test system: aldehyde oxidase (the present enzyme); assay type: biochemical, Pseudomonas sp No. 6233
Experimental: as §1, §2, §3, §4, §5
The present enzyme is inhibited by mercuric chloride and p-chloromercuriphenylsulfonic acid, and thus it appears that an SH group takes part in the reaction.

[3] = biological target: T1, aldehyde oxidase of animal origin (Oryctolagus cuniculus, UniProt P80456); assay type: biochemical
T1 sequence (P80456 1-1334): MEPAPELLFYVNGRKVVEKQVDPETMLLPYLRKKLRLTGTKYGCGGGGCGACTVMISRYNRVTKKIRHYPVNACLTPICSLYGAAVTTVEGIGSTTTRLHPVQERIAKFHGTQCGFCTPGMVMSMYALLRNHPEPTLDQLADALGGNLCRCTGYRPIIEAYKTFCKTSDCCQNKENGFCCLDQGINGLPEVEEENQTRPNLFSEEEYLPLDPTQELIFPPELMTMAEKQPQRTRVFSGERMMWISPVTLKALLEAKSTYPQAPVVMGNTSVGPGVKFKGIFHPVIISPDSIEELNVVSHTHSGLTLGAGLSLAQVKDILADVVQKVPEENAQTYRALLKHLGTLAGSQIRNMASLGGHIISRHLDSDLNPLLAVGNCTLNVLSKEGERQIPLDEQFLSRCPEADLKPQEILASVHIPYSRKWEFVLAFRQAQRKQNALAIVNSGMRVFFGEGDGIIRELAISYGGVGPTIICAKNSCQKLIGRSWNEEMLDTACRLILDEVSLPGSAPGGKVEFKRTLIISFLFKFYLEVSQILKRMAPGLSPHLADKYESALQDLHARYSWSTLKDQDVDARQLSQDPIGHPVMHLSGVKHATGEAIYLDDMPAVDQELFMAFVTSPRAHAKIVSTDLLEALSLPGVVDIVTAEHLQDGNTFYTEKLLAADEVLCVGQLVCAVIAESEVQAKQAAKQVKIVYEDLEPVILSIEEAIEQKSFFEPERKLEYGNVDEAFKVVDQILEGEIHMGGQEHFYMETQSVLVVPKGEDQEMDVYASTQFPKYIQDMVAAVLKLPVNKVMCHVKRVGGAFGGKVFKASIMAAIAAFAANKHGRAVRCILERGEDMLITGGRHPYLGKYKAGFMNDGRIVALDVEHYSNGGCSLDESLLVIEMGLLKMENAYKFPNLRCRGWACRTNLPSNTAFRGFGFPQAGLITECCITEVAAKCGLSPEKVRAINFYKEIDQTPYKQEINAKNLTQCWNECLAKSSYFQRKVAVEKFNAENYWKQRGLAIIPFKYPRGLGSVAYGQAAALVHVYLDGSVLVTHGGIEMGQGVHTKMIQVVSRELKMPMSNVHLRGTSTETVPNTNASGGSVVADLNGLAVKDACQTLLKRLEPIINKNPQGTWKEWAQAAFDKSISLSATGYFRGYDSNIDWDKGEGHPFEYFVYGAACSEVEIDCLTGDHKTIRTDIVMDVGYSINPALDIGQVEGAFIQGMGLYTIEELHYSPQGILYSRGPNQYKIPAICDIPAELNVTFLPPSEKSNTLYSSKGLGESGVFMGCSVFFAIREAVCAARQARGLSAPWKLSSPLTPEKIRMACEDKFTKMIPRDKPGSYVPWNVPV
Source text: *aldehyde oxidase of animal origin for comparison purposes.

[4] = biological target: T1, aldehyde oxidase of animal origin; settings: known enzyme, literature; cited from earlier work
[5] = concentration 0.1 mM, none = 100

Molecule | action of the present enzyme upon the substrate [1] | Relative activity (substrate specificity) [1] | also measured
C=C[C@H]1C[N@@]2CC[C@H]1C[C@H]2[C@H](O)c1ccnc2ccc(OC)cc12 [Quinine] | does not have any catalytic action; also recorded: does not act upon | 0% | –
O=S(=O)(O)c1cc[c]([Hg][Cl])cc1 [p-Chloromercuriphenylsulfonic acid, p-chloromercuriphenylsulfonic acid] | – | – | Relative activity (%) [2, 5]: 0%; inhibition of the present enzyme [2]: inhibited
[Cl-].[Cl-].[Co+2] [CoCl2] | – | – | Relative activity (%) ([2]; concentration 1 mM, none = 100): 104%
O=S(=O)([O-])[O-].[Mg+2] [MgSO4] | – | – | Relative activity (%) ([2]; concentration 1 mM, none = 100): 97%
C[n+]1cccc(C(N)=O)c1 [N'--Methylnicotinamide] | does not act upon | 0% | –
ON=Cc1ccccc1O [Salicylaldoxime] | – | – | Relative activity (%) ([2]; 1000 µM): 91%
O=C[C@@H](O)CO [L-Glyceraldehyde] | acts upon | 23% | –
c1ccc(-c2ccccn2)nc1 [α, α'-Dipyridyl] | – | – | Relative activity (%) ([2]; concentration 1 mM, none = 100): 85%
C=O [Formaldehyde] | acts upon | 100% | –
CO [Methanol] | does not act upon | 0% | –
c1ccc2ncccc2c1 [Quinoline] | does not act upon | 0% | –
CC(C)=CCCC(C)=CC=O [Citral] | acts upon | 291% | –
Antimycin A | – | – | Relative activity (%), aldehyde oxidase of animal origin ([3]; concentration 2 × 10^-3 mM, value in brackets, for comparison, 2 µM): 38%; inhibition of the known aldehyde oxidase of animal origin ([3]; known aldehyde oxidase): strongly inhibited; Relative activity (%) ([2]; concentration 2 × 10^-3 mM, none = 100, 2 µM): 94%; inhibition of the present enzyme [2]: not strongly inhibited
C/C=C/C=O [Crotonaldehyde] | acts upon | 260% | –
O=Cc1ccccc1 [Benzaldehyde] | acts upon | 93% | –
O=S(=O)([O-])[O-].[Cu+2] [CuSO4] | – | – | Relative activity (%) [2, 5]: 20%
CCCCCC=O [n-Hexylaldehyde] | acts upon | 390% | –

Molecule | action of the present enzyme upon the substrate [1] | Relative activity (substrate specificity) [1] | also measured
[Cl][Mn][Cl] [MnCl2] | – | – | Relative activity (%) ([2]; concentration 1 mM, none = 100): 106%
[Cl][Hg][Cl] [HgCl2, mercuric chloride] | – | – | Relative activity (%) [2, 5]: 0%; inhibition of the present enzyme [2]: inhibited
CC=O [Acetaldehyde] | acts upon | 266% | –
c1ncc2[nH]cnc2n1 [Purine] | does not have any catalytic action | 0% | action of aldehyde oxidase of animal origin upon the substrate [4]: acts upon
[Cl-].[Cl-].[Zn+2] [ZnCl2] | – | – | Relative activity (%) ([2]; concentration 1 mM, none = 100): 103%
CC(=O)O [Ca(CH3 COO)2] | – | – | Relative activity (%) ([2]; 1000 µM): 109%
CCCCCCC=O [Heptylaldehyde] | acts upon | 387% | –
O=S(=O)([O-])[O-].[Fe+2] [FeSO4] | – | – | Relative activity (%) [2, 5]: 100%
O=C[C@H](O)CO [D-Glyceraldehyde] | acts upon | 270% | –
NO [Hydroxylamine] | – | – | Relative activity (%) ([2]; concentration 1 mM, none = 100): 110%
c1cnc2c(c1)ccc1cccnc12 [O--Phenanthroline] | – | – | Relative activity (%) ([2]; concentration 1 mM, none = 100): 103%
CCO [Ethanol] | does not act upon | 0% | –
[Ba+2].[Cl-].[Cl-] [BaCl2] | – | – | Relative activity (%) [2, 5]: 87%
CCCCC=O [n-Valeraldehyde] | acts upon | 367% | –
CCC=O [Propionaldehyde] | acts upon | 285% | –
[Cl-].[Cl-].[Sr+2] [SrCl2] | – | – | Relative activity (%) ([2]; concentration 1 mM, none = 100): 94%
O=c1[nH]cnc2nc[nH]c12 [Hypoxanthine] | does not have any catalytic action | 0% | action of aldehyde oxidase of animal origin upon the substrate [4]: acts upon
